Measured values as given in article PMC10855533, “Saturation Transfer Difference NMR and Molecular Docking Interaction Study of Aralkyl-Thiodigalactosides as Potential Inhibitors of the Human-Galectin-3 Protein” (International Journal of Molecular Sciences, 2024).

Key:
hGal-3 protein = hGal-3 protein (Homo sapiens, UniProt P17931); experiment: Competition STD 1H NMR titration against reference ligand TDG (5); assay type: binding; conditions: for Kd: calculated from IC50 with Kd(ref.) of TDG and Lref 4 mM (Equation 2); for Kd / Relative STD Intensity of H-4 of TDG titrated by competitor: 303 K; for Relative STD Intensity of H-4 of TDG titrated by competitor: 40 μM hGal-3, 4 mM TDG (5); for IC50: competitor concentration for 50% displacement of 4 mM TDG (5), 40 μM hGal-3, exponential fit; for Relative Affinity, Kd (ref.)/Kd (comp.): referenced to TDG (5), times stronger binding than TDG
Text: The competition STD NMR method provides an opportunity to characterize moderately and strongly bound protein–ligand systems (KD = 10^−6 M − 10^−9 M), where the determination is not feasible in direct STD experiment due to kinetic reasons. In the competition experiment, the concentration of the target protein and the reference ligand is kept at a constant level. An STD spectrum of the starting sample state is obtained. Then, by adding the competitive ligand in increasing concentration step-by-step, the resonance signal changes in the STD spectra can be monitored. If the competitor ligand binds strongly to the target protein, a decrease in the STD signal intensities of the reference ligand is observed. If the IC50 value is reached before the equimolar ratio of the reference and the competitor ligand, it can be concluded that the competitor binds more strongly than the selected reference compound to the protein. The strength of the interaction can be quantified by the determination of the dissociation constant value (KD).
By plotting the relative STD ^1H NMR signal intensities of the H-4 proton of the reference compound (5) as a function of the concentration of the given competitor ligand, the IC50 values can be determined (Figure 4). The IC50 value gives the concentration of the competitor ligand required to halve the signal intensity of the reference ligand in the STD spectrum, so it provides the competitor concentration required for 50% displacement of the reference compound (5). IC50 values were calculated based on the equation of the exponential function fitted to the points measured.
The dissociation constant of the interaction was calculated according to the following equation (Equation (1)):(1) Kd(ref.)=Lref×Kd(comp.)/IC50−Kd(comp.)
By rearranging this equation, the Kd value of the competitor ligand (Kd(comp.)) can be obtained (Equation (2)):(2) Kd(comp.)=Kd(ref.)×IC50/Lref+Kd(ref.) where Kd(ref.) refers to the dissociation constant of the reference ligand, Lref is the concentration of the reference ligand, Kd(comp.) is the dissociation constant of the competitor compound, and IC50 is the concentration of the competitor compound at half-signal intensity.

[1] = for Aggregation during the series of STD titration experiments: up to 1:1 reference and competition ligand ratio (4 mM)
Description: We chose the TDG (5), a well-known, moderately bound ligand of hGal-3, as a reference ligand for our competition STD ^1H NMR experiments. As a first step, we recorded an STD ^1H NMR spectrum on the starting sample, which always contained 40 μM hGal-3 protein and 4 mM TDG (1:100 protein reference ligand ratio). Then, the titration was started by adding the synthesized competitor ligand into the NMR sample step-by-step, and we performed STD experiments on each solution composition. […] Thus, the 100% STD effect was determined as the H-4 intensity value of TDG (5) in the initial sample state, and its relative decrease caused by adding the competitor ligand in increasing concentration was measured in each titration step (Table 1).
All ^1H STD NMR experiments were recorded on a Bruker Avance Neo 700 MHz spectrometer equipped with a 5 mm z-gradient (TCI) triple-tuned Prodigy cryoprobe. The measurements were performed at a temperature of 303 K. The data acquisition and processing were performed with TopSpin 3.6.2 and 4.1.1 software. Samples were prepared in 10 mM phosphate buffer solution (140 mM NaCl/KCl, pH = 7.4) in D2O. The initial sample contained 40 μM of hGal-3 protein and 4 mM of compound 5 for each experiment. Competitor ligands were added to the initial samples from stock solutions of different concentrations so that the smallest volume (2 μL) could be added in each titration step. […] The protein resonances were selectively irradiated in competition STD experiments by Eburp (90°) excitation pulses, with a length of 50 ms each with a maximum B1 field strength of 75 Hz yielding a total irradiation time of 3 s. The off-resonance pulse frequency was set to −40 ppm and the on-resonance frequency to 0 ppm. Off- and on-resonance data were recorded at alternate scans, and the corresponding FIDs were collected in separate memories of subsequent processing files, and STD spectra were produced after subtraction of the two subspectra. Competition STD spectra were typically recorded with 1200 repetitions (NS = 8, L4 = 150) to ensure an adequate signal-to-noise ratio for the analysis.

hGal-3 = biological target: hGal-3; parameters: method as in PMID 32955737; conditions: reference ligand TDG, ITC; cited from earlier work

Chain of hGal-3 protein (P17931 whole entry): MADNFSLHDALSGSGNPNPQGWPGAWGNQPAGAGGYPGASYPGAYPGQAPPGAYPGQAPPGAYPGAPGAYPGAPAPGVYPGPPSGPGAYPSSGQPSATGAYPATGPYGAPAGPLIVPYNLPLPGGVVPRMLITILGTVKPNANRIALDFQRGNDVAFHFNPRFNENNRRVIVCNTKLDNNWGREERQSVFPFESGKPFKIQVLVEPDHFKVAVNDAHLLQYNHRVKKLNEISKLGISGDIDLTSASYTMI

## OC[C@H]1O[C@@H](S[C@@H]2O[C@H](CO)[C@H](O)[C@H](OCc3ccc4ccccc4n3)[C@H]2O)[C@H](O)[C@@H](OCc2ccc3ccccc3n2)[C@H]1O [Compound 1, Bis-{3-O-[(Quinoline-2-yl)Methyl]-β-D-Galactopyranosyl}-Sulfane]
hGal-3 protein
  Kd: 1.7 µM
  IC50: 134 µM
  Relative Affinity, Kd (ref.)/Kd (comp.): 30
hGal-3 protein; competitor 40 μM
  Relative STD Intensity of H-4 of TDG titrated by competitor: 78%
hGal-3 protein; competitor 80 μM
  Relative STD Intensity of H-4 of TDG titrated by competitor: 65%
hGal-3 protein; competitor 100 μM
  Relative STD Intensity of H-4 of TDG titrated by competitor: 61%
hGal-3 protein; competitor 250 μM
  Relative STD Intensity of H-4 of TDG titrated by competitor: 33%
hGal-3 protein; competitor 300 μM
  Relative STD Intensity of H-4 of TDG titrated by competitor: 24%
hGal-3 protein; competitor 4000 μM
  Relative STD Intensity of H-4 of TDG titrated by competitor: 0%
[1]
  Aggregation during the series of STD titration experiments: did not observe any aggregation

## OC[C@H]1O[C@@H](S[C@@H]2O[C@H](CO)[C@H](O)[C@H](OCc3ccc4ccccc4c3)[C@H]2O)[C@H](O)[C@@H](OCc2ccc3ccccc3c2)[C@H]1O [Compound 2, Bis-{3-O-[(Naphtalene-2-yl)Methyl]-β-D-Galactopyranosyl}-Sulfane]
hGal-3 protein
  Kd: 0.55 µM
  IC50: 43 µM
  Relative Affinity, Kd (ref.)/Kd (comp.): 94
hGal-3 protein; competitor 10 μM
  Relative STD Intensity of H-4 of TDG titrated by competitor: 86%
hGal-3 protein; competitor 20 μM
  Relative STD Intensity of H-4 of TDG titrated by competitor: 68%
hGal-3 protein; competitor 30 μM
  Relative STD Intensity of H-4 of TDG titrated by competitor: 59%
hGal-3 protein; competitor 40 μM
  Relative STD Intensity of H-4 of TDG titrated by competitor: 55%
hGal-3 protein; competitor 50 μM
  Relative STD Intensity of H-4 of TDG titrated by competitor: 37%
hGal-3 protein; competitor 60 μM
  Relative STD Intensity of H-4 of TDG titrated by competitor: 33%
hGal-3 protein; competitor 100 μM
  Relative STD Intensity of H-4 of TDG titrated by competitor: 24%
[1]; pH 7.4
  Solubility: uncertain

## OC[C@H]1O[C@@H](S[C@@H]2O[C@H](CO)[C@H](O)[C@H](OCc3ccccc3)[C@H]2O)[C@H](O)[C@@H](OCc2ccccc2)[C@H]1O [Compound 3, Bis-(3-O-Benzyl-β-D-Galactopyranosyl)-Sulfane]
hGal-3 protein
  Kd: 2.19 µM
  IC50: 172 µM
  Relative Affinity, Kd (ref.)/Kd (comp.): 24
hGal-3 protein; competitor 40 μM
  Relative STD Intensity of H-4 of TDG titrated by competitor: 85%
hGal-3 protein; competitor 80 μM
  Relative STD Intensity of H-4 of TDG titrated by competitor: 75%
hGal-3 protein; competitor 120 μM
  Relative STD Intensity of H-4 of TDG titrated by competitor: 64%
hGal-3 protein; competitor 160 μM
  Relative STD Intensity of H-4 of TDG titrated by competitor: 50%
hGal-3 protein; competitor 250 μM
  Relative STD Intensity of H-4 of TDG titrated by competitor: 31%
hGal-3 protein; competitor 400 μM
  Relative STD Intensity of H-4 of TDG titrated by competitor: 28%
hGal-3 protein; competitor 4000 μM
  Relative STD Intensity of H-4 of TDG titrated by competitor: 0%
[1]
  Aggregation during the series of STD titration experiments: did not observe any aggregation

## OC[C@H]1O[C@@H](S[C@@H]2O[C@H](CO)[C@H](O)[C@H](O)[C@H]2O)[C@H](O)[C@@H](O)[C@H]1O [Compound 5, Bis-(β-D-Galactopyranosyl)-Sulfane, reference compound]
hGal-3 protein
  Relative Affinity, Kd (ref.)/Kd (comp.): 1
hGal-3
  Kd: 51.4 µM
